# Measurements: US11261186B2, “Biaryl derivative as GPR120 agonist” (LG CHEM, LTD., priority 2014, dated 2022)
# Biological target: T1, hGPR120 (Homo sapiens, UniProt Q5NUL3)
# T1 construct: expressed in transfected cells; host or cells: CHO-K1
# T1 sequence (Q5NUL3 1-361): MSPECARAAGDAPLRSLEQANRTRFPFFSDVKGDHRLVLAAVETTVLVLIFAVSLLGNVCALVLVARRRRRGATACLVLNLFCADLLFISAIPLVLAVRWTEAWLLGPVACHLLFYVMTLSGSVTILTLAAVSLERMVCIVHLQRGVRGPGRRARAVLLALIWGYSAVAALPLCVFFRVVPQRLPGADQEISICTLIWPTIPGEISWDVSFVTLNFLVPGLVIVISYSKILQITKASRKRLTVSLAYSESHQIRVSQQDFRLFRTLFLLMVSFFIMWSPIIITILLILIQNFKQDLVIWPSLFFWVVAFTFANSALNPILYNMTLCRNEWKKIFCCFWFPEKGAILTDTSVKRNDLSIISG
# Assay: Measurement of Activity of GPR120 Agonist (Cell-Based Assay), Calcium 5 dye fluorescence
# Conditions: CHO-K1 cells expressing Ga16 and hGPR120
# Procedure, shortened: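 After an 18 h incubation at 37 °C, the transfected CHO-K1 cells (Gα16, hGPR120) received Calcium 5 dye for 1 h; compound dilutions in 0.5% DMSO were then injected and emission at 525 nm recorded, with values given as % of the vehicle response.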
row,EC50,Compound
1,< 200 nM,"CC(CCCCC(=O)O)c1c(F)cc(-c2cccnc2OC2CCCC2)cc1F (stereo not shown) [Example 237, 6-[4-(2-cyclopentyloxy-pyridin-3-yl)-2,6-difluoro-phenyl]-heptanoic acid]"
2,< 200 nM,"CC(C)Oc1cccc(-c2cc(F)c(OCCCC(=O)O)c(F)c2)c1 [Example 18, 4-(3,5-difluoro-3′-isopropoxy-biphenyl-4-yloxy)-butyric acid]"
3,< 200 nM,"O=C(O)CCCCc1c(F)cc(-c2cccnc2OCC2CC2)cc1F [Example 252, 5-[4-(2-cyclopropylmethoxy-pyridin-3-yl)-2,6-difluoro-phenyl]-pentanoic acid]"
4,200 to 2000 nM,"CC(C)Oc1ncccc1-c1cc(F)c(N(C)CCCC(=O)O)c(F)c1 [Example 214, 4-{[2,6-difluoro-4-(2-isopropoxy-pyridin-3-yl)-phenyl]-methyl-amino}-butyric acid]"
5,< 200 nM,"CC(C)Sc1ncccc1-c1cc(F)c(N2CCC(CCC(=O)O)CC2)c(F)c1 [Example 126, 3-[1-[2,6-difluoro-4-(2-isopropylsulfanyl-3-pyridyl)phenyl]-4-piperidyl]propanoic acid]"
6,200 to 2000 nM,"CC(Oc1cccc(-c2cc(F)c(N3CCC(CC(=O)O)CC3)c(F)c2)n1)C(F)(F)F (stereo not shown) [Example 316, 2-[1-[2,6-difluoro-4-[6-(2,2,2-trifluoro-1-methyl-ethoxy)-2-pyridyl]phenyl]-4-piperidyl]acetic acid]"
7,< 200 nM,"O=C(O)CCCOc1c(F)cc(-c2cccc(OCC3CCC3)c2)cc1F [Example 521, 4-(3′-cyclobutylmethoxy-3,5-difluoro-biphenyl-4-yloxy)-butyric acid]"
8,200 to 2000 nM,"Cc1cc(OCC2CC2)nc(-c2cc(F)c(N3CCC(CC(=O)O)CC3)c(F)c2)n1 [Example 331, 2-[1-[4-[4-(cyclopropylmethoxy)-6-methyl-pyrimidin-2-yl]-2,6-difluoro-phenyl]-4-piperidyl]acetic acid]"
9,< 200 nM,"Cc1ccc(OCC2CCC2)cc1-c1cc(F)c(OCCCC(=O)O)c(F)c1 [Example 530, 4-(5′-cyclobutylmethoxy-3,5-difluoro-2′-methyl-biphenyl-4-yloxy)-butyric acid]"
10,2000 to 20000 nM,"COC(c1cccc(-c2cc(F)c(N3CCC(CC(=O)O)CC3)c(F)c2)n1)C1CC1 (stereo not shown) [Example 318, 2-[1-[4-[6-[cyclopropyl(methoxy)methyl]-2-pyridyl]-2,6-difluoro-phenyl]-4-piperidyl]acetic acid]"
11,200 to 2000 nM,"CC(C)Cc1ccnc(-c2cc(F)c(N3CCC(CC(=O)O)CC3)c(F)c2)n1 [Example 365, 2-[1-[2,6-difluoro-4-(4-isobutylpyrimidin-2-yl)phenyl]-4-piperidyl]acetic acid]"
12,< 200 nM,"CC(C)Sc1cccc(-c2cc(F)c(N3CC(CC(=O)O)C3)c(F)c2)n1 [Example 114, 2-[1-[2,6-difluoro-4-(6-isopropylsulfanyl-2-pyridyl)phenyl]azetidin-3-yl]acetic acid]"
13,< 200 nM,"CCCOc1ccnc(-c2cc(F)c(N3CCC(CC(=O)O)C3)c(F)c2)n1 (stereo not shown) [Example 499, 2-{1-[2,6-difluoro-4-(4-propoxy-pyrimidin-2-yl)phenyl]pyrrolidin-3-yl}acetic acid]"
14,< 200 nM,"COc1ccc(-c2cc(F)c(OCCCC(=O)O)c(Cl)c2)cc1OCC1CC1 [Example 407, 4-(5-chloro-3′-cyclopropylmethoxy-3-fluoro-4′-methoxy-biphenyl-4-yloxy)-butyric acid]"
15,200 to 2000 nM,"O=C(O)CCCC1(c2c(F)cc(-c3cccnc3OCC3CCC3)cc2F)CC1 [Example 169, 4-{1-[4-(2-cyclobutylmethoxy-pyridin-3-yl)-2,6-difluoro-phenyl]-cyclopropyl}-butyric acid]"
16,< 200 nM,"O=C(O)CC1CCN(c2c(F)cc(-c3nccc(Oc4cccc(F)c4)n3)cc2F)CC1 [Example 607, 2-[1-[4-[4-(3-fluorophenoxy)pyrimidin-2-yl]-2,6-difluoro-phenyl]-4-piperidyl]acetic acid]"
17,< 200 nM,"CC(C)Oc1cncc(-c2cc(F)c(OCCCC(=O)O)c(Cl)c2)n1 [Example 436, 4-[2-chloro-6-fluoro-4-(6-isopropoxy-pyrazin-2-yl)-phenoxy]-butyric acid]"
18,< 200 nM,"O=C(O)CCCOc1ccc(-c2cccnc2OCC2CCC2)cc1F [Example 241, 4-[4-(2-cyclobutylmethoxy-pyridin-3-yl)-2-fluoro-phenoxy]-butyric acid]"
19,2000 to 20000 nM,"CCCSc1ncccc1-c1ccc(CCCc2noc(=O)[nH]2)cc1 [Example 63, 3-[3-[4-(2-propylsulfanyl-3-pyridyl)phenyl]propyl]-4H-1,2,4-oxadiazol-5-one]"
20,200 to 2000 nM,"O=C(O)CCC1CC1c1c(F)cc(-c2cccc3c2OC2(CCCC2)C3)cc1F (stereo not shown) [Example 443, 3-[2-(2,6-difluoro-4-spiro[3H-benzofuran-2,1′-cyclopentan]-7-yl-phenyl)cyclopropyl]propanoic acid]"
21,200 to 2000 nM,"Cc1cc2cc(Cl)cc(-c3cc(F)c(C(C)CCCC(=O)O)c(F)c3)c2o1 (stereo not shown) [Example 519, 5-[4-(5-chloro-2-methyl-benzofuran-7-yl)-2,6-difluoro-phenyl]-hexanoic acid]"
22,< 200 nM,"CN(CCCC(=O)O)c1c(F)cc(-c2cccc3c2OC2(CCCC2)C3)cc1F [Example 263, 4-(2,6-difluoro-N-methyl-4-spiro[3H-benzofuran-2,1′-cyclopentan]-7-yl-anilino)-butyric acid]"
23,< 200 nM,COc1ccc(-c2cc(F)c(C(C)CCCC(=O)O)c(F)c2)c2c1OC(C)(C)C2 (stereo not shown) [Example 260]
24,200 to 2000 nM,"O=C(O)CCC1CCc2cc(-c3cccnc3OCC3CC3)ccc2O1 (stereo not shown) [Example 276, 3-[6-(2-cyclopropylmethoxy-pyridin-3-yl)-chroman-2-yl]-propionic acid]"
25,200 to 2000 nM,"CN(CCCC(=O)O)c1c(F)cc(-c2cccc(N3CCCC3)c2)cc1F [Example 201, 4-[(3,5-difluoro-3′-pyrrolidin-1-yl-biphenyl-4-yl)-methyl-amino]-butyric acid]"
26,< 200 nM,"CN(CCCC(=O)O)c1c(F)cc(-c2cccc(OCC3CC3)n2)cc1F [Example 493, 4-[4-[6-(cyclopropylmethoxy)-2-pyridyl]-2,6-difluoro-N-methyl-anilino]butanoic acid]"
27,200 to 2000 nM,"CC(C)CNc1cncc(-c2cc(F)c(N3CCC(CC(=O)O)CC3)c(F)c2)n1 [Example 356, 2-[1-[2,6-difluoro-4-[6-(isobutylamino)pyrazin-2-yl]phenyl]-4-piperidyl]acetic acid]"
28,200 to 2000 nM,"COc1ccc(-c2cc(F)c(N3CCC(CC(=O)O)CC3)c(F)c2)nc1OCC1CC1 [Example 462, 2-[1-[4-[6-(cyclopropylmethoxy)-5-methoxy-2-pyridyl]-2,6-difluoro-phenyl]-4-piperidyl]acetic acid]"

row,Compound,EC50
1,"CCCCOc1csc(-c2cc(F)c(N3CCC(CC(=O)O)CC3)c(F)c2)n1 [Example 380, {1-[4-(4-butoxy-thiazol-2-yl)-2,6-difluoro-phenyl]-piperidin-4-yl}acetic acid]",200 to 2000 nM
2,"COc1ccc(-c2cc(F)c(N3CCC(CC(=O)O)CC3)c(F)c2)nc1OC1CCC1 [Example 457, 2-[1-[4-[6-(cyclobutoxy)-5-methoxy-2-pyridyl]-2,6-difluoro-phenyl]-4-piperidyl]acetic acid]",200 to 2000 nM
3,"O=C(O)CCCOc1c(F)cc(-n2ccc3cc(OC4CCC4)ccc32)cc1F [Example 477, 4-[4-[5-(cyclobutoxy)indol-1-yl]-2,6-difluoro-phenoxy]butanoic acid]",200 to 2000 nM
4,"CC(CCCC(=O)O)c1c(F)cc(-c2cccnc2OC2CCC2)cc1F (stereo not shown) [Example 59, 5-[4-(2-cyclobutoxy-3-pyridyl)-2,6-difluoro-phenyl]hexanoic acid]",< 200 nM
5,"Oc1cc(CNc2c(F)cc(-c3cccnc3OC3CCCC3)cc2F)on1 [Example 84, 5-[[4-[2-(cyclopentoxy)-3-pyridyl]-2,6-difluoro-anilino]methyl]isoxazol-3-ol]",< 200 nM
6,"Oc1cc(CCOc2c(F)cc(-c3cccnc3OC3CCCC3)cc2F)on1 [Example 89, 5-[2-[4-[2-(cyclopentoxy)-3-pyridyl]-2,6-difluoro-phenoxy]ethyl]isoxazol-3-ol]",< 200 nM
7,"Cc1c(OC2CCC2)cccc1-c1cc(F)c(N2CCC(CC(=O)O)CC2)c(F)c1 [Example 310, 2-[1-[4-[3-(cyclobutoxy)-2-methyl-phenyl]-2,6-difluoro-phenyl]-4-piperidyl]acetic acid]",2000 to 20000 nM
8,"CC(C)(CCCC(=O)O)c1c(F)cc(-c2cccnc2OC2CCCC2)cc1F [Example 162, 5-[4-(2-cyclopentyloxy-pyridin-3-yl)-2,6-difluoro-phenyl]-5-methyl-hexanoic acid]",200 to 2000 nM
9,"CN(CCCC(=O)O)c1c(F)cc(-c2csc(OC3CCC3)n2)cc1F [Example 486, 4-[4-[2-(cyclobutoxy)thiazol-4-yl]-2,6-difluoro-N-methyl-anilino]butanoic acid]",< 200 nM
10,"O=C(O)CC1CCN(c2c(F)cc(-c3ccc(Cl)c(OC4CCC4)n3)cc2F)CC1 [Example 311, 2-[1-[4-[5-chloro-6-(cyclobutoxy)-2-pyridyl]-2,6-difluoro-phenyl]-4-piperidyl]acetic acid]",200 to 2000 nM
11,"Oc1ccc(COc2c(F)cc(-c3cccnc3OC3CCCC3)cc2F)cn1 [Example 79, 5-[[4-[2-(cyclopentoxy)-3-pyridyl]-2,6-difluoro-phenoxy]methyl]pyridin-2-ol]",2000 to 20000 nM
12,"O=C(O)CCC1CCc2cc(-c3cccc(OC4CCC4)n3)ccc2S1 (stereo not shown) [Example 441, 3-[6-[6-(cyclobutoxy)-2-pyridyl]thiochroman-2-yl]propanoic acid]",< 200 nM
